{"source": "patent US20180306775A1", "about": "“Portable Sampling Device and Method for Sampling Drug Substances From Exhaled Breath” (Sensa Bues AB, priority 2011, published 2018)", "format_in_all_cases": "in vivo, human", "key": {"[1]": {"experiment": "Sampling of methadone from exhaled breath using electrostatic filter membrane (250 g/m2 non-woven layer, two carriers)", "conditions": "for Methadone Range: range among subjects", "procedure": "(§1) Sampling of drugs of abuse from exhaled human breath using filter membrane.\nThe tests were performed at 4 different occasions."}, "[2]": {"experiment": "Pre-study: sampling of methadone in breath using variable densities of the electrostatic filter membrane", "conditions": "exhaled breath, n=5; for Methadone Range: range among subjects", "text": "as §1\nType is the density of the non-woven layer at each test, the other headlines are the same as for table 1."}, "[3]": {"experiment": "Sampling of methadone in exhaled breath with constructed sampler (tubular section with baffles), two filter thicknesses", "conditions": "for Constructed sampler Methadone Range: n=5", "text": "as §1\nThe subject exhales through the tubular section comprising baffles to trapping large particles and saliva."}, "[4]": {"conditions": "filter diameter 32 mm, sampling time 1 min, n=6"}, "[5]": {"conditions": "filter diameter 32 mm, sampling time 3 min, n=5 (one of 4 occasions)"}, "[6]": {"conditions": "filter diameter 32 mm, sampling time 3 min, n=6 (one of 4 occasions)"}, "[7]": {"conditions": "filter diameter 47 mm, sampling time 3 min, n=6"}}, "data": [{"molecule": "CCC(=O)C(CC(C)N(C)C)(c1ccccc1)c1ccccc1", "note": "(stereo not drawn) [Methadone, methadone]", "values": [{"measurement": "Methadone pg/min mean ± SD", "setting": "[1]; [4]", "value": "204 ± 116", "unit": "pg/min"}, {"measurement": "Methadone Range", "setting": "[1]; [4]", "value": "21 to 326", "unit": "pg/min"}, {"measurement": "Methadone pg/min mean ± SD", "setting": "[1]; [5]", "value": "112 ± 89", "unit": "pg/min"}, {"measurement": "Methadone pg/min mean ± SD", "setting": "[1]; [6]", "value": "92 ± 62", "unit": "pg/min"}, {"measurement": "Methadone Range", "setting": "[1]; [5]", "value": "47 to 266", "unit": "pg/min"}, {"measurement": "Methadone Range", "setting": "[1]; [6]", "value": "28 to 199", "unit": "pg/min"}, {"measurement": "Methadone pg/min mean ± SD", "setting": "[1]; [7]", "value": "86 ± 52", "unit": "pg/min"}, {"measurement": "Methadone Range", "setting": "[1]; [7]", "value": "18 to 168", "unit": "pg/min"}, {"measurement": "Methadone Range", "setting": "[2]; filter type 150 g/m2", "value": "24 to 216", "unit": "pg/min"}, {"measurement": "Methadone Range", "setting": "[2]; filter type 250 g/m2", "value": "19 to 231", "unit": "pg/min"}, {"measurement": "Methadone Range", "setting": "[2]; filter type 300 g/m2", "value": "20 to 287", "unit": "pg/min"}, {"measurement": "Methadone pg/min mean ± SD", "setting": "[2]; filter type (density of non-woven layer) 150 g/m2", "value": "74.4 ± 80.4", "unit": "pg/min"}, {"measurement": "Methadone pg/min mean ± SD", "setting": "[2]; filter type (density of non-woven layer) 250 g/m2", "value": "71.0 ± 90.1", "unit": "pg/min"}, {"measurement": "Methadone pg/min mean ± SD", "setting": "[2]; filter type (density of non-woven layer) 300 g/m2", "value": "91.8 ± 110", "unit": "pg/min"}, {"measurement": "Constructed sampler Methadone pg/min mean ± SD", "setting": "[3]; filter thickness 1, n=5", "value": "40 ± 27", "unit": "pg/min"}, {"measurement": "Constructed sampler Methadone Range", "setting": "[3]; filter thickness 1, range among subjects", "value": "12 to 85", "unit": "pg/min"}, {"measurement": "Constructed sampler Methadone pg/min mean ± SD", "setting": "[3]; filter thickness 2, n=5", "value": "42 ± 28", "unit": "pg/min"}, {"measurement": "Constructed sampler Methadone Range", "setting": "[3]; filter thickness 2, range among subjects", "value": "17 to 90", "unit": "pg/min"}]}]}
